For 17 compounds, EC50 results are on record in patent US12201633B2, “Compounds and methods for treatment of visceral pain” (Arena Pharmaceuticals, Inc., priority 2017, dated 2025).

Assay [1] has as its target T1, human CB2 receptor (Homo sapiens, UniProt P34972). Description: PathHunter β-arrestin assay, CB2.
A further assay has as its target hCB1 (Homo sapiens, UniProt P21554). Description: PathHunter β-arrestin assay, CB1.
In assay [2] the target is T1, human CB2 receptor. Description: HTRF assay for direct cAMP measurement, CB2. It counts as cell-based. More on the design: 93-0164 (CHO-K1 EA-Arrestin parental line); host or cells: CHO-K1 EA-Arrestin, clone #61.

The structures appear in SMILES notation. pEC50: −log10 of the molar value.

Chain of hCB1 (P21554 whole entry): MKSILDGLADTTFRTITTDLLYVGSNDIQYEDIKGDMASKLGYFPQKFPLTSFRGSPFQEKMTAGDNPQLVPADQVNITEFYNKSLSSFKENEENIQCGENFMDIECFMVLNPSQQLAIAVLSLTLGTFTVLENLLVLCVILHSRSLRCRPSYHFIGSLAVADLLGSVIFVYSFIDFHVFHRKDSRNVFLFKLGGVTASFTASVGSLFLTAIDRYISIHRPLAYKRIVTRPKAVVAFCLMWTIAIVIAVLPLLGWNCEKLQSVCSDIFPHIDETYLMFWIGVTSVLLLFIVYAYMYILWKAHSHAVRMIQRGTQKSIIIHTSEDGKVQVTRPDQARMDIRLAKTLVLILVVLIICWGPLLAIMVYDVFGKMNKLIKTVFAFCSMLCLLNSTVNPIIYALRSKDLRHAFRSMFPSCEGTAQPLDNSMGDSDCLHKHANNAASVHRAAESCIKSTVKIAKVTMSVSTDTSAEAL
T1 sequence (P34972 whole entry): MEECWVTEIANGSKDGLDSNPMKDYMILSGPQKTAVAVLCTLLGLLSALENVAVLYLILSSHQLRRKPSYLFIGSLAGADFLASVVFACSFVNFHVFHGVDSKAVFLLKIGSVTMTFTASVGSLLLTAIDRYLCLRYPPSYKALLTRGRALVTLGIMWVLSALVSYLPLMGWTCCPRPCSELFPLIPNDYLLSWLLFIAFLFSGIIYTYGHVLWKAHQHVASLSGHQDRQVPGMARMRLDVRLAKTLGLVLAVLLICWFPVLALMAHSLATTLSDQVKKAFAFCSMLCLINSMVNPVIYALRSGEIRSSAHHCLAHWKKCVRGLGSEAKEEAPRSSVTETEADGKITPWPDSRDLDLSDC

For `CC(C)(C)NC(=O)c1nn(-c2cnccn2)c2c1C[C@H]1C[C@@H]21` [Compound 593, (1aR,5aR)-2-Pyrazin-2-yl-1a,2,5,5a-tetrahydro-1H-2,3-diaza-cyclopropa[a]pentalene-4-carboxylic acid tert-butylamide], the pEC50 (in general, the negative decadic logarithm of the EC50, by convention in mol/L) on human CB2 receptor [1] is 7.46; on hCB1, 5.88; on human CB2 receptor [2] it was 8.15.

Take `CC(C)(C)[C@@H](CF)NC(=O)c1nn(-c2c[n+]([O-])ccn2)c2c1C[C@H]1C[C@@H]21` [Compound 918, (1aR,5aR)-2-(4-Oxy-pyrazin-2-yl)-1a,2,5,5a-tetrahydro-1H-2,3-diaza-cyclopropa[a]pentalene-4-carboxylic acid ((S)-1-fluoromethyl-2,2-dimethyl-propyl)-amide]: the pEC50 on human CB2 receptor [1] is 9.00; at hCB1, 6.36.

For `N#Cc1ccnc(-n2nc(C(=O)N[C@H](CO)CC(F)(F)F)c3c2[C@H]2C[C@H]2C3)c1` [Compound 891, (1aS,5aS)-2-(4-Cyano-pyridin-2-yl)-1a,2,5,5a-tetrahydro-1H-2,3-diaza-cyclopropa[a]pentalene-4-carboxylic acid ((S)-3,3,3-trifluoro-1-hydroxymethyl-propyl)-amide], the pEC50 at human CB2 receptor [1] was 7.79; on hCB1, 4.93.

For `O=C(NC(CO)(CF)CF)c1nn(-c2cc(Cl)ccn2)c2c1C[C@@H]1C[C@H]21` [Compound 889, (1aS,5aS)-2-(4-Chloro-pyridin-2-yl)-1a,2,5,5a-tetrahydro-1H-2,3-diaza-cyclopropa[a]pentalene-4-carboxylic acid (2-fluoro-1-fluoromethyl-1-hydroxymethyl-ethyl)-amide], the pEC50 on human CB2 receptor [1] is 8.07; on hCB1 it was 5.39.

Turning to `CCNC(=O)[C@@H](NC(=O)c1nn(-c2c[n+]([O-])ccn2)c2c1C[C@H]1C[C@@H]21)C(C)(C)C` [Compound 728, (1aR,5aR)-2-(4-Oxy-pyrazin-2-yl)-1a,2,5,5a-tetrahydro-1H-2,3-diaza-cyclopropa[a]pentalene-4-carboxylic acid ((S)-1-ethylcarbamoyl-2,2-dimethyl-propyl)-amide], the pEC50 on human CB2 receptor [1] is 8.96; at hCB1, 6.60.

Consider `CC1(NC(=O)c2nn(-c3c[n+]([O-])ccn3)c3c2C[C@H]2C[C@@H]32)CCC1` [Compound 821, (1aR,5aR)-2-(4-Oxy-pyrazin-2-yl)-1a,2,5,5a-tetrahydro-1H-2,3-diaza-cyclopropa[a]pentalene-4-carboxylic acid (1-methyl-cyclobutyl)-amide], for which the negative-log EC50 (pEC50) on human CB2 receptor [1] was 8.15; at human CB2 receptor [2], 9.22.

Take `CC(C)(CO)NC(=O)c1nn(-c2ccc(F)cn2)c2c1C[C@H]1C[C@@H]21` [Compound 309, (1aR,5aR)-2-(5-Fluoro-pyridin-2-yl)-1a,2,5,5a-tetrahydro-1H-2,3-diaza-cyclopropa[a]pentalene-4-carboxylic acid (2-hydroxy-1,1-dimethyl-ethyl)-amide]: the pEC50 on human CB2 receptor [1] is 6.87; on human CB2 receptor [2], 7.72.

For `COC(=O)[C@@H](NC(=O)c1nn(-c2c[n+]([O-])ccn2)c2c1C[C@H]1C[C@@H]21)C(C)(C)C` [Compound 746, (S)-3,3-Dimethyl-2-{[(1aR,5aR)-2-(4-oxy-pyrazin-2-yl)-1a,2,5,5a-tetrahydro-1H-2,3-diaza-cyclopropa[a]pentalene-4-carbonyl]-amino}-butyric acid methyl ester], the pEC50 on human CB2 receptor [1] was 9.15; at hCB1, 6.85.

`CC(C)(C)[C@@H](CO)NC(=O)c1nn(-c2cnccn2)c2c1C[C@@H]1C[C@H]21` [Compound 696, (1aS,5aS)-2-Pyrazin-2-yl-1a,2,5,5a-tetrahydro-1H-2,3-diaza-cyclopropa[a]pentalene-4-carboxylic acid ((S)-1-hydroxymethyl-2,2-dimethyl-propyl)-amide]: the negative logarithm of the EC50 (pEC50) is 7.31 at human CB2 receptor [1] and 8.16 on human CB2 receptor [2].

As to `O=C(NC1(c2ccccn2)CCC1)c1nn(-c2c[n+]([O-])ccn2)c2c1C[C@@H]1C[C@H]21` [Compound 700, (1aS,5aS)-2-(4-Oxy-pyrazin-2-yl)-1a,2,5,5a-tetrahydro-1H-2,3-diaza-cyclopropa[a]pentalene-4-carboxylic acid (1-pyridin-2-yl-cyclobutyl)-amide], the pEC50 at human CB2 receptor [1] was 7.50; at human CB2 receptor [2] it was 8.50.

In the case of `O=C(NC1(CO)CCC1)c1nn(-c2c[n+]([O-])ccn2)c2c1C[C@H]1C[C@@H]21` [Compound 698, (1aR,5aR)-2-(4-Oxy-pyrazin-2-yl)-1a,2,5,5a-tetrahydro-1H-2,3-diaza-cyclopropa[a]pentalene-4-carboxylic acid (1-hydroxymethyl-cyclobutyl)-amide], the values for the pEC50 at human CB2 receptor [1] and on human CB2 receptor [2] were 7.55 and 7.99, respectively.

Take `O=C(NC1(C(F)(F)F)CCC1)c1nn(-c2c[n+]([O-])ccn2)c2c1C[C@@H]1C[C@H]21` [Compound 765, (1aS,5aS)-2-(4-Oxy-pyrazin-2-yl)-1a,2,5,5a-tetrahydro-1H-2,3-diaza-cyclopropa[a]pentalene-4-carboxylic acid (1-trifluoromethyl-cyclobutyl)-amide]: the negative-log EC50 (pEC50) at human CB2 receptor [1] was 8.94; on human CB2 receptor [2], 10.00.

Consider `CC(CO)(CO)NC(=O)c1nn(-c2cc(C#N)ccn2)c2c1C[C@H]1C[C@@H]21` [Compound 820, (1aR,5aR)-2-(4-Cyano-pyridin-2-yl)-1a,2,5,5a-tetrahydro-1H-2,3-diaza-cyclopropa[a]pentalene-4-carboxylic acid (2-hydroxy-1-hydroxymethyl-1-methyl-ethyl)-amide], for which the results for the negative-log EC50 (pEC50) on human CB2 receptor [1] and at human CB2 receptor [2] were 7.42 and 8.58, respectively.

With `CC(C)(CF)NC(=O)c1nn(-c2cc(Cl)ccn2)c2c1C[C@@H]1C[C@H]21` [Compound 897, (1aS,5aS)-2-(4-Chloro-pyridin-2-yl)-1a,2,5,5a-tetrahydro-1H-2,3-diaza-cyclopropa[a]pentalene-4-carboxylic acid (2-fluoro-1,1-dimethyl-ethyl)-amide], the figures for the pEC50 on human CB2 receptor [1] and on hCB1 were 8.42 and 6.02, respectively.

On to `O=C(NC1(C(F)(F)F)CCC1)c1nn(-c2cnccn2)c2c1C[C@@H]1C[C@H]21` [Compound 926, (1aS,5aS)-2-Pyrazin-2-yl-1a,2,5,5a-tetrahydro-1H-2,3-diaza-cyclopropa[a]pentalene-4-carboxylic acid (1-trifluoromethyl-cyclobutyl)-amide], for which the pEC50 on human CB2 receptor [1] is 8.35; at human CB2 receptor [2] it was 9.70.

For the compound `O=C(NC1(CF)CCC1)c1nn(-c2c[n+]([O-])ccn2)c2c1C[C@@H]1C[C@H]21` [Compound 924, (1aS,5aS)-2-(4-Oxy-pyrazin-2-yl)-1a,2,5,5a-tetrahydro-1H-2,3-diaza-cyclopropa[a]pentalene-4-carboxylic acid (1-fluoromethyl-cyclobutyl)-amide], the pEC50 is 7.98 on human CB2 receptor [1] and 9.10 on human CB2 receptor [2].

Consider `O=C(N[C@H](CO)C1CCOCC1)c1nn(-c2cnccn2)c2c1C[C@H]1C[C@@H]21` [Compound 684, (1aR,5aR)-2-Pyrazin-2-yl-1a,2,5,5a-tetrahydro-1H-2,3-diaza-cyclopropa[a]pentalene-4-carboxylic acid ((S)-2-hydroxy-1-tetrahydro-pyran-4-yl-ethyl)-amide], for which the pEC50 at human CB2 receptor [1] was 7.23; at human CB2 receptor [2], 8.15.
